# Results: EP0318240A2, “Peptide, adsorbent, method for production thereof, and method for use thereof” (AGENCY OF INDUSTRIAL SCIENCE & TECHNOLOGY MINISTRY OF …, priority 1987, dated 1989)
# Assay: Solubility of peptide in the phosphate buffer solution used for immobilization
# Assay type: physicochemical
# Details: phosphate buffer solution (0.02 mol/liter) of pH 7.4
# Experimental: • (a) In 50 ml of dioxane obtained by distillation in the presence of sodium metal, 10 g of cellulose particles (marketed by Seikagaku Kogyo Co., Ltd. under the tradename "CM-Cellulofine CH") were suspended. In the suspension, 0.5 g of N-hydroxysuccinimide and 1.0 g of dicyclohexylcarbodiimide added thereto were shaken overnight at room temperature. The resultant mixture was washed with a phosphate buffer solution (0.02 mol/liter) of pH 7.4 and suction filtered. The particles consequently obtained and 20 ml of a phosphate buffer solution (0.02 mol/liter) of pH 7.4 containing 20 mg of the peptide of Example 1 added thereto were stirred overnight at a temperature of 4°C. The mixture consequently obtained was suction filtered. […] Thus, about 10 g of cellulose particles (the adsorbent not heat treated) having immobilized thereon 20 mg of the peptide of Example 1 were obtained. • (b) In 5-ml aliquots of a phosphate buffer solution (0.02 mol/liter) of pH 7.4 containing sodium chloride in a concentration of 0.15 mol/liter, the peptide-immobilized cellulose particles obtained as described above were suspended in a unit amount of 1 g. […]
substance,measurement,value
H-Leu-Leu-Gly-Trp-Lys-His-Trp-Val-Tyr-Tyr-Thr- C y s - C^y s -Pro-Asp-Thr-Pro-Tyr-Leu-Asp-OH [Referential Example 2],solubility in the phosphate buffer solution,low solubility
